According to patent publication US10344025B2, “GLS1 inhibitors for treating disease” (Board of Regents, The University of Texas System, priority 2014, dated 2019):

Tests used:
[1] = target: purified recombinant human GAC (GLS1) (Homo sapiens (Human), UniProt O94925); assay: GLS1 Enzymatic Activity Assay (dual-coupled enzymatic assay, resorufin/Amplex UltraRed readout); type: biochemical;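 further: glutamate from GAC coupled via glutamate oxidase and peroxidase to resorufin, read as fluorescence (ex 530, em 590 nm) kinetically or at 20 min, four-parameter logistic IC50 fit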
A549 cells = assay: Proliferation Assay (A549 viability, Cell Titer Fluor, 72 hours); type: cell-based; conditions: Homo sapiens, A549, 72 h
Procedure, shortened: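 Cell Titer Fluor fluorescence after 72 h compound treatment (0.5% DMSO, 37 °C, 5% CO2) of A549 cells plated 24 h earlier at 1000/well. Four-parameter logistic fitting gave IC50.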

Sequence of purified recombinant human GAC (GLS1) (O94925 other isoform, or with tags, fused parts or gaps): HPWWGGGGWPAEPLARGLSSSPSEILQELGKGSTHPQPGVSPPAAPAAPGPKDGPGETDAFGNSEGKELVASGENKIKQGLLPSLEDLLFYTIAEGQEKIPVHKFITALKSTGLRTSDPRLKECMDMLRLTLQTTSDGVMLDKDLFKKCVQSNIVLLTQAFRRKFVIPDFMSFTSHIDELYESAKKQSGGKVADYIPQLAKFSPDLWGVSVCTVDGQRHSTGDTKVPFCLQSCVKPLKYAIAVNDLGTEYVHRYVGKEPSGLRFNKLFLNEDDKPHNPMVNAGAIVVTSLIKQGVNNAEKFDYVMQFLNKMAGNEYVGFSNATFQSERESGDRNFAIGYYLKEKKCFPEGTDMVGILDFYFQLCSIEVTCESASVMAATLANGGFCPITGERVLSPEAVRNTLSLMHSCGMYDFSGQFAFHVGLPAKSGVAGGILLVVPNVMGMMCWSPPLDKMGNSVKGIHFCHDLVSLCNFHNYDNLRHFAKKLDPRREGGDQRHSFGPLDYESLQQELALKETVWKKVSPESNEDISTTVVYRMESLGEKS

Compound | IC50 [1] | EC50 (A549 cells)
O=C(NCc1cc(C(F)(F)F)ccn1)c1cn(CCCCn2cc(C(=O)N[C@@H](CO)c3ccccc3)nn2)nn1 [Example 100, 1-[4-(4-{[(1R)-2-hydroxy-1-phenylethyl]carbamoyl}-1H-1,2,3-triazol-1-yl)butyl]-N-{[4-(trifluoromethyl)pyridin-2-yl]methyl}-1H-1,2,3-triazole-4-carboxamide] | 500 to 5000 nM | > 5000 nM
O=C(NCc1cccc(C(F)(F)F)c1)c1cn(CCCCn2cc(C(=O)NCc3cc(C(F)(F)F)ccn3)nn2)nn1 [Example 97, 1-{4-[4-({[3-(trifluoromethyl)phenyl]methyl}carbamoyl)-1H-1,2,3-triazol-1-yl]butyl}-N-{[4-(trifluoromethyl)pyridin-2-yl]methyl}-1H-1,2,3-triazole-4-carboxamide] | < 100 nM | < 100 nM
Cc1ccc(CNC(=O)c2cn(CCCCc3nnc(C(=O)NCc4ccccn4)s3)nn2)cn1 [Example 62, 5-[4-(4-{[(6-methylpyridin-3-yl)methyl]carbamoyl}-1H-1,2,3-triazol-1-yl)butyl]-N-(pyridin-2-ylmethyl)-1,3,4-thiadiazole-2-carboxamide] | 100 to 500 nM | 500 to 5000 nM
CNC(=O)c1cn(CC(F)CCc2ccc(NC(=O)CN3CCN(c4cccc(OC(F)(F)F)c4)CC3=O)nn2)nn1 (stereo not shown) [Example 241, 1-(2-fluoro-4-(6-(2-(2-oxo-4-(3-(trifluoromethoxy)phenyl)piperazin-1-yl)acetamido)pyridazin-3-yl)butyl)-N-methyl-1H-1,2,3-triazole-4-carboxamide] | < 100 nM | < 100 nM
O=C(NCCc1ccccc1)c1nnc(CCCCc2ccc(NC(=O)[C@@H](O)c3ccccc3)nn2)s1 [Example 25, 5-(4-{6-[(2S)-2-hydroxy-2-phenylacetamido]pyridazin-3-yl}butyl)-N-(2-phenylethyl)-1,3,4-thiadiazole-2-carboxamide] | < 100 nM | 100 to 500 nM

Further lines, results first:

IC50 [1] | EC50 (A549 cells) | Compound
500 to 5000 nM | 500 to 5000 nM | CNC(=O)c1cn(CC(F)CCc2nnc(C(=O)NCc3ccccc3)s2)nn1 (stereo not shown) [Example 563, N-benzyl-5-{3-fluoro-4-[4-(methylcarbamoyl)-1H-1,2,3-triazol-1-yl]butyl}-1,3,4-thiadiazole-2-carboxamide]
< 100 nM | 100 to 500 nM | CNC(=O)c1cn(CC(F)CCn2cc(NC(=O)Cc3cc(OC(F)(F)F)ccc3F)nn2)nn1 (stereo not shown) [Example 539, 1-[2-fluoro-4-(4-{2-[2-fluoro-5-(trifluoromethoxy)phenyl]acetamido}-1H-1,2,3-triazol-1-yl)butyl]-N-methyl-1H-1,2,3-triazole-4-carboxamide]
< 100 nM | 100 to 500 nM | Cc1ccc(CNC(=O)c2cn(CC(F)CCc3nnc(C(=O)NCc4cccc(OC(F)(F)F)c4)s3)nn2)cn1 (stereo not shown) [Example 420, 5-[3-fluoro-4-(4-{[(6-methylpyridin-3-yl)methyl]carbamoyl}-1H-1,2,3-triazol-1-yl)butyl]-N-{[3-(trifluoromethoxy)phenyl]methyl}-1,3,4-thiadiazole-2-carboxamide]
< 100 nM | 500 to 5000 nM | CNC(=O)c1cn(CC(F)CCc2nnc(NC(=O)Cc3cccnc3)s2)nn1 (stereo not shown) [Example 578, 1-(2-fluoro-4-(5-(2-(pyridin-3-yl)acetamido)-1,3,4-thiadiazol-2-yl)butyl)-N-methyl-1H-1,2,3-triazole-4-carboxamide]
< 100 nM | < 100 nM | O=C(Cc1cc(OC(F)(F)F)ccc1F)Nc1cn(CCCCn2cc(C(=O)NCc3cccc(OC(F)(F)F)c3)nn2)nn1 [Example 380, 1-[4-(4-{2-[2-fluoro-5-(trifluoromethoxy)phenyl]acetamido}-1H-1,2,3-triazol-1-yl)butyl]-N-{[3-(trifluoromethoxy)phenyl]methyl}-1H-1,2,3-triazole-4-carboxamide]
100 to 500 nM | 500 to 5000 nM | Cc1ccc(CC(=O)Nc2cn(CCCCn3cc(C(=O)NCc4ccccn4)nn3)nn2)cn1 [Example 306, 1-(4-{4-[2-(6-methylpyridin-3-yl)acetamido]-1H-1,2,3-triazol-1-yl}butyl)-N-(pyridin-2-ylmethyl)-1H-1,2,3-triazole-4-carboxamide]
